# The NIST ThermoML archive (doi:10.1007/s10765-008-0514-x)
# “And” between values parts separate entries of the source, which are not always exact repeats. Identical values can stand only once. ± gives the expanded uncertainty stated by the source.
# Assay: cn = amount concentration of the nth substance listed, in mol/dm3
# Conditions: 101 kPa, Liquid, c1 = 2
Compound,mass density (298.15 K),speed of sound (298.15 K),mass density (303.15 K),speed of sound (303.15 K),mass density (308.15 K),speed of sound (308.15 K),mass density (313.15 K),speed of sound (313.15 K),mass density (318.15 K),speed of sound (318.15 K),mass density (323.15 K),speed of sound (323.15 K)
[Cl-].[K+] [potassium chloride] + O,1089.1 ± 1.7 kg/m3,1595.2 ± 3.3 m/s,1087.5 ± 1.8 kg/m3,1605.9 ± 3.3 m/s,1085.6 ± 1.9 kg/m3,1610.2 ± 3.3 m/s,1083.4 ± 1.9 kg/m3,1616.4 ± 3.4 m/s,1080.9 ± 2 kg/m3,1621.4 ± 3.4 m/s,1078.3 ± 2.1 kg/m3,1626.5 ± 3.4 m/s
O=[N+]([O-])[O-].[K+] [potassium nitrate] + O,1122.9 ± 1.8 kg/m3,1562 ± 3.3 m/s,1120.6 ± 1.9 kg/m3,1569.4 ± 3.3 m/s,1118 ± 1.9 kg/m3,1575.8 ± 3.3 m/s and 1575 ± 3.3 m/s,1115 ± 2 kg/m3,1580 ± 3.3 m/s,1111.8 ± 2.1 kg/m3,1584.6 ± 3.3 m/s and 1584.5 ± 3.3 m/s,1108.2 ± 2.1 kg/m3,1588.9 ± 3.3 m/s and 1588.8 ± 3.3 m/s
